Type in all cases: in vivo
Experiment [1] deals with red spider Panonychus ulmi (PANOUL). The experiment in a line: Example A: apple tree field test against red spider, count of adult spider mites on 25 leaves. The settings on record: etoxazole 0.05%, I-1-b 0.04%; for PANOUL (number of adult spider mites on 25 leaves): apple 'Braeburn'; for Prey/Predator ratio: PANOUL/AMBLAN. The protocol: (§1) In 4 replications, in each case five about 10-year-old apple trees (crown height about 2.5 m) of the cultivar “Braeburn” are treated against the red spider Panonychus ulmi (PANOUL). Here, the active compound (I-b-1) (240SC) and the commercial standard etoxazole (110 SC) are applied at the stated application rates in the presence of the predatory mite Amblyseius andersoni (AMBLAN) using a pressure-operated knapsack spray. The water application rate is 400 l/ha. Two applications are carried out at an interval of 42 days.
(§2) Evaluation is carried out 4 days prior to and 6, 29, 43 and 63 days after the 1st treatment by counting the number of adult spider mites and predatory mites on 25 leaves and establishing a prey/predator ratio as a measure for the supporting action of the beneficial species.

In experiment [2] the test system is predatory mite Amblyseius andersoni (AMBLAN). The experiment can be described thus: Example A: apple tree field test, count of predatory mites on 25 leaves. The conditions noted are these: apple 'Braeburn', etoxazole 0.05%, I-1-b 0.04%. As to the method: as §1, §2
Experiment [3] relates to fruit tree spider mite (Panonychus ulmi). The experiment can be described thus: Example B: Panonychus ulmi test on plum cuttings, with or without added predatory mites. The settings on record: 20 ppm, active compound alone, spray. The text has this:
The expected activity for a given combination of two active compounds can be calculated (cf. Colby, S. R.; “Calculating Synergistic and Antagonistic Responses of Herbicide Combinations”, Weeds 15, pages 20-22, 1967) as follows:
If • X is the kill rate, expressed in % of the untreated control, when employing active compound A at an application rate of in ppm or g/ha, • Y is the kill rate, expressed in % of the untreated control, when employing active compound B at an application rate of n ppm or g/ha, • E is the kill rate, expressed in % of the untreated control, when employing active compounds A and B at application rates of m and n ppm or g/ha, • then
If the actual insecticidal kill rate is higher than the calculated one, the kill rates of the combination are superadditive, i.e. a synergistic effect is present. In this case, the kill rate that is actually observed has to be higher than the value, calculated using the formula above, for the expected kill rate (E).
To produce a suitable preparation of active compound, 1 part by weight of active compound is mixed with the stated amounts of solvent and emulsifier, and the concentrate is diluted with emulsifier-containing water to the desired concentration. […]
After the desired period of time, the kill of the pest in % is determined. […] The determined kill ratios are entered into Colby's formula.

[4] abbreviates: 6 d after 1st treatment, AMBLAN present.
The mark [5] stands for this setting: 29 d after 1st treatment, AMBLAN present.
Where [6] appears, read: 43 d after 1st treatment, two applications 42 days apart.
The mark [7] stands for this setting: 63 d after 1st treatment, two applications 42 days apart.
Setting [8] is: −4 d (4 days prior to 1st treatment).
Setting [9] is: −4 d (4 days prior to 1st treatment), AMBLAN present.

As for `CCC(C)(C)C(=O)OC1=C(c2ccc(Cl)cc2Cl)C(=O)OC12CCCCC2` [I-b-1, spirodiclofen], the “PANOUL (number of adult spider mites on 25 leaves)” value is recorded as 13 in experiment [1] (setting [4]); 111 in experiment [1] (setting [5]); 52 in experiment [1] (setting [6]); 0 in experiment [1] (setting [7]); 36 in experiment [1] (setting [9]). Besides, the Prey/Predator ratio in experiment [1] (6 d after 1st treatment) is reported as 4.3; in experiment [1] (29 d after 1st treatment) it was 1.9; in experiment [1] (43 d after 1st treatment) it was 0.5; in experiment [1] (63 d after 1st treatment), 0.00; in experiment [1] (setting [8]), 18. For the same compound, the “AMBLAN (number of predatory mites on 25 leaves)” value is given as 3 in experiment [2] (6 d after 1st treatment); 57 in experiment [2] (29 d after 1st treatment); 100 in experiment [2] (setting [6]); 62 in experiment [2] (setting [7]); 2 in experiment [2] (setting [8]). For the same compound, in experiment [3], the “Kill in % after 7 d” value came to 70%.

In the case of `CCOc1cc(C(C)(C)C)ccc1C1COC(c2c(F)cccc2F)=N1` (stereo not shown) [etoxazole, reference compound], the “PANOUL (number of adult spider mites on 25 leaves)” value in experiment [1] (setting [4]) came out at 10; in experiment [1] (setting [5]) it was 221; in experiment [1] (setting [6]) it was 203; in experiment [1] (setting [7]) it was 87; in experiment [1] (setting [9]), 25. Further, the Prey/Predator ratio is recorded as 2.0 in experiment [1] (6 d after 1st treatment); 12.3 in experiment [1] (29 d after 1st treatment); 3.9 in experiment [1] (43 d after 1st treatment); 1.01 in experiment [1] (63 d after 1st treatment); 25 in experiment [1] (setting [8]). The “AMBLAN (number of predatory mites on 25 leaves)” value in experiment [2] (6 d after 1st treatment) came out at 5; in experiment [2] (29 d after 1st treatment) it was 18; in experiment [2] (setting [6]) it was 52; in experiment [2] (setting [7]), 86; in experiment [2] (setting [8]) it was 1.

Values taken from US20100056620A1, “ACTIVE COMPOUND COMBINATIONS WITH INSECTICIDAL AND ACARICIDAL PROPERTIES” (Bayer CropScience AG, priority 2006, published 2010).
